Measured values taken from paper PMC8619914, “Development of Novel Peptides for the Antimicrobial Combination Therapy against Carbapenem-Resistant Acinetobacter baumannii Infection” (Pharmaceutics, 2021).

Key:
intact CRAB C1 = assay: Membrane depolarization, diSC3-5, intact cells; assay type: cell-based, carbapenem-resistant Acinetobacter baumannii; conditions: peptide 4 μg·mL^−1, 100% = 1% triton X-100
Method: The membrane depolarization activity of each AMPs at varying concentrations (1–16 μg·mL^−^1) against CRAB C1 intact cells were measured using 3,3′-dipropylthiadicarbocyanine iodide (diSC3-5). CRAB C1 was washed two times in washing buffer (5 mM HEPES, 20 mM glucose, pH 7.4), the experiment buffer was changed (5 mM HEPES, 20 mM glucose, 0.1 M KCl, pH 7.4), and diSC3-5 dye was added. As a control, 100% depolarization was obtained by treating CRAB C1 with 1% triton X-100 [33]. Spheroplast cells were prepared by the osmotic shock, as previously described. […] The corresponding fluorescent were measured using RF-6000PC fluorescent spectrophotometer (Shimadzu Scientific Instruments, Kyoto, Japan).
Figure 3 CRAB C1 membrane destruction caused by PapMA analogs. The concentration dependent depolarization of (A) intact CRAB C1 and its (B) spheroplast induced by PapMA and its analogs, determined using the membrane potential-sensitive fluorescent dye diSC3-5. Dye release was monitored by measuring fluorescence, at an excitation wavelength of 654 nm and an emission wavelength of 670 nm.

CRAB C1 [1] = tested on: CRAB C1
Method: (§1) Antibacterial activity of PapMA-3 in combination with imipenem was measured against CRAB C1 in the presence of 50% human serum. The treated cells were incubated for 16 h at 37 °C, and the absorbance at 600 nm was measured using a SpectraMAX microplate reader (Molecular Devices).

A. baumannii = conditions: 50% human serum in MH medium, 16 h, 37 °C; measure of serum stability
Method: as §1

HEK-293 cells = assay: Cytotoxicity, WST-8 Cell Proliferation Assay; assay type: cell-based, human; conditions: at its MIC, 24 h and 48 h
Method: (§2) Human embryonic kidney (HEK)-293 cells, purchased from Korean cell line bank (Seoul, Korea) were cultured in Dulbecco’s modified Eagle’s medium (DMEM) (Welgene, Gyeong-san, Korea) with 10% fetal bovine serum, 1% penicillin-streptomycin at 37 °C in a humidified 5% CO2 incubator as described previously. The cytotoxicity of the six PapMA peptides and melittin was determined using WST-8 Cell Proliferation Assay Kit (Biomax Co, Ltd., Seoul, Korea), according to the manufacturer’s instructions. […] The absorbance was measured at 450 nm using a SpectraMAX microplate reader (Molecular Devices).
Figure 4 Cytotoxicity of PapMA analogs. (A) Cytotoxicity of PapMA and its analogs against HEK-293 cell. […] (B) Hemolysis activity of PapMA analogs against sRBC. The peptide was serially diluted and incubated with sRBC for 1 h with melittin as a control. Statistical analysis was performed using two-way ANOVA with Dunnett’s comparison test. The values are expressed as the mean ± SEM of three independent experiments and are statistically significant at ** p < 0.01; and *** p < 0.001. ns, not significant.

[2] = tested on: Gram-negative bacterial strains; assay: organism not typed
Excerpt: (§3) The Gram-negative bacterial strain Escherichia coli (KCTC 1682) and Gram-positive bacterial strain Staphylococcus aureus (KCTC 1621) were purchased from the Korean Collection for Type Cultures (Jeongeup, Korea). Acinetobacter baumannii (KCCM 40203) were purchased from Korea Culture Center of Microorganisms (Seoul, Korea). Additionally, five carbapenem-resistant Acinetobacter baumanii C1–C5 (CRAB C1–C5), which have the OXA-23 gene with carbapenem-resistance were collected from the patients with CRAB bacteremia, who presented symptoms and signs of infection at Korea University Anam Hospital (Seoul, Korea) (IRB registration no. 2020AN0157). The minimum inhibitory concentrations (MIC) of the AMP and antibiotics against the various bacterial strains were assessed using the serial dilution method on Muller–Hinton (MH) media, as described previously. […] Absorbance at 600 nm was measured using a SpectraMAX microplate reader (Molecular Devices, San Jose, CA, USA).
Geometric means (GM) were calculated to compare the relative antimicrobial activities of the analogs against Gram-negative bacteria. […] Next, the antibacterial mechanisms of peptides were investigated.

HaCaT cells = assay: Cytotoxicity, WST-8 Cell Proliferation Assay; assay type: cell-based, human; conditions: at its MIC, 24 h and 48 h
Method: as §2
Figure 10 Cytotoxicity of PapMA-3 (A) Cytotoxicity of PapMA-3 against HEK-293 cells at 24 h and 48 h. (B) Cytotoxicity of PapMA-3 against HaCaT cell at 24 h and 48 h. Statistical analysis was performed using two-way ANOVA with Dunnett’s comparison test. The values are expressed as the mean ± SEM of three independent experiments and are statistically significant at * p < 0.05; *** p < 0.001; ns, not significant.

CRAB C4 = assay: microbe, parasite or virus in culture; conditions: MH media, 2 × 10^5 CFU·mL^−1, 37 °C, 16 h, absorbance 600 nm
Excerpt: as §3
(§4) Measurement of the minimum inhibitory concentrations (MIC) was conducted to determine the effect of the hydrophobicity of each antimicrobial peptide on its antimicrobial activity. MIC was defined as the minimum concentration that killed more than 99% of bacteria; it was measured against two standard Gram-negative bacteria (E. coli and A. baumanii), five clinically isolated CRAB (C1–C5), and one Gram-positive bacteria (S. aureus).

[3] = tested on: Acinetobacter baumannii (KCCM 40203); assay: microbe, parasite or virus in culture; conditions: 16 h
Excerpt: as §3, §4

CRAB C1 [4] = assay: microbe, parasite or virus in culture; conditions: 16 h
Excerpt: as §3, §4

CRAB C3 = assay: microbe, parasite or virus in culture; conditions: MH media, 2 × 10^5 CFU·mL^−1, 37 °C, 16 h, absorbance 600 nm
Excerpt: as §3, §4

CRAB C2 = assay: microbe, parasite or virus in culture; conditions: MH media, 2 × 10^5 CFU·mL^−1, 37 °C, 16 h, absorbance 600 nm
Excerpt: as §3, §4

CRAB C5 = assay: microbe, parasite or virus in culture; conditions: MH media, 2 × 10^5 CFU·mL^−1, 37 °C, 16 h, absorbance 600 nm
Excerpt: as §3, §4

[5] = MH media, 2 × 10^5 CFU·mL^−1, 37 °C, absorbance 600 nm

CC[C@H](C)[C@H](NC(=O)CN)C(=O)NCC(=O)N[C@@H](C)C(=O)N[C@H](C(=O)N[C@@H](CC(C)C)C(=O)N[C@@H](CCCCN)C(=O)N[C@H](C(=O)N[C@@H](CC(C)C)C(=O)N[C@H](C(=O)N[C@H](C(=O)NCC(=O)N[C@@H](CC(C)C)C(=O)N1CCC[C@H]1C(=O)N[C@@H](C)C(=O)N[C@@H](CC(C)C)C(=O)N[C@H](C(=O)N[C@@H](CO)C(=O)N[C@@H](Cc1c[nH]c2ccccc12)C(=O)N[C@H](C(=O)N[C@@H](CCCCN)C(=O)N[C@@H](CCCNC(=N)N)C(=O)N[C@@H](CCCCN)C(=O)N[C@@H](CCCNC(=N)N)C(=O)N[C@@H](CCC(N)=O)C(=O)N[C@@H](CCC(N)=O)C(N)=O)[C@@H](C)CC)[C@@H](C)CC)[C@@H](C)O)[C@@H](C)O)C(C)C)C(C)C [melittin]
depolarization of intact CRAB C1 (intact CRAB C1): 86.4% | change of antibacterial activity in the presence of 50% human serum (CRAB C1 [1]; 50% human serum in MH media versus MH media, E. coli, A. baumannii, CRAB C1): lost antibacterial activity considerably | Minimum Inhibitory Concentration, CRAB C1, + Serum (50%) (CRAB C1 [1]; 50% human serum in MH medium, 16 h, 37 °C, measure of serum stability): 256 µg/mL | Minimum Inhibitory Concentration, A. baumannii, + Serum (50%) (A. baumannii): 128 µg/mL | toxicity, HEK-293 (HEK-293 cells): severe toxicity | GM (mean MIC of Gram-negative bacterial strains) [2]: 14 µg/mL | toxicity, HaCaT (HaCaT cells): severe toxicity | Minimum Inhibitory Concentration, CRAB C4 (CRAB C4): 8 µg/mL | Minimum Inhibitory Concentration, A. baumannii, MH Media ([3]; MH media without serum, 37 °C): 16 µg/mL | Minimum Inhibitory Concentration, A. baumanii [3, 5]: 16 µg/mL | Minimum Inhibitory Concentration, CRAB C1, MH Media (CRAB C1 [4]; MH media without serum, 37 °C): 16 µg/mL | Minimum Inhibitory Concentration, CRAB C1 (CRAB C1 [4]; [5]): 16 µg/mL | Minimum Inhibitory Concentration, CRAB C3 (CRAB C3): 16 µg/mL | Minimum Inhibitory Concentration, CRAB C2 (CRAB C2): 16 µg/mL | Minimum Inhibitory Concentration, CRAB C5 (CRAB C5): 16 µg/mL
